From patent publication US5840684A, “Glycopeptide antibiotic derivatives” (Eli Lilly and Company, priority 1995, dated 1998) come the findings set out here.

Converted amounts (≈) assume the structure as drawn.

Assay [1] relates to Staphylococcus aureus S13E. The assay is classed as cell-based. How it is done:
(§1) The MIC's were determined using a standard broth micro-dilution assay.

In assay [2] the test system is Staphylococcus aureus SA1199B. Type of assay: cell-based. How it is done: as §1
The test system of assay [3] is Entercoccus faecium 180-1. Put plainly: broth micro-dilution MIC. The assay is classed as cell-based. How it is done:
as §1
For orientation: Broth dilution looks for growth in wells or tubes with falling amounts of substance.

A further assay has as its system Entercoccus faecium 276. Put plainly: broth micro-dilution MIC. Type of assay: cell-based. How it is done:
as §1

Assay [4] relates to Staphylococcus aureus 446. Put plainly: broth micro-dilution MIC. Type of assay: cell-based. How it is done: as §1
Assay [5] deals with Staphylococcus aureus 447. Put plainly: broth micro-dilution MIC. The assay is classed as cell-based. The procedure:
as §1

In assay [6] the test system is Staphylococcus aureus 489. Briefly: broth micro-dilution MIC. Type of assay: cell-based. The procedure:
as §1

The test system of assay [7] is Staphylococcus aureus 491. Briefly: broth micro-dilution MIC. Type of assay: cell-based. How it is done:
as §1

Assay [8] relates to Staphylococcus aureus SA1199A. Briefly: broth micro-dilution MIC. The assay is classed as cell-based. The procedure:
as §1

Assay [9] relates to Staphylococcus aureus SA1199. Briefly: broth micro-dilution MIC. The assay is classed as cell-based. How it is done:
as §1

The test system of assay [10] is Staphylococcus aureus X400. Briefly: broth micro-dilution MIC. Type of assay: cell-based. How it is done: as §1
The subject of assay [11] is Staphylococcus aureus X778. Briefly: broth micro-dilution MIC. The assay is classed as cell-based. How it is done:
as §1

The subject of assay [12] is Streptococcus pyogenes C203. Put plainly: broth micro-dilution MIC. Type of assay: cell-based. The procedure:
as §1

The subject of a further assay is Entercoccus faecium 180. Briefly: broth micro-dilution MIC. Type of assay: cell-based. The note with it: Entercoccus faecium 180. The procedure: (§2) The formula I compounds have in vitro and in vivo activity against Gram-positive pathogenic bacteria. The MIC's were determined using a standard broth micro-dilution assay.
Another assay relates to Entercoccus faecium 2041. Put plainly: broth micro-dilution MIC. The assay is classed as cell-based. The conditions noted are these: Entercoccus faecium 2041. The procedure:
as §2

Assay [13] relates to Enterococcus gallinarum 245. Put plainly: broth micro-dilution MIC. The assay is classed as cell-based. The note with it: Enterococcus gallinarum 245. The procedure: as §2
The subject of assay [14] is Staphylococcus epidermidis 270. Put plainly: broth micro-dilution MIC. Type of assay: cell-based. How it is done:
as §2

The test system of assay [15] is Staphylococcus haemolyticus 105. Briefly: broth micro-dilution MIC. The assay is classed as cell-based. How it is done: as §2
Assay [16] deals with Staphylococcus haemolyticus 415. Put plainly: broth micro-dilution MIC. The assay is classed as cell-based. How it is done: as §2
The subject of assay [17] is Streptococcus pneumoniae P1. Put plainly: broth micro-dilution MIC. The assay is classed as cell-based. How it is done:
as §2

Assay [18] deals with vancomycin-susceptible enterococci. Put plainly: broth micro-dilution, mean geometric MIC. The conditions noted are these: enterococci, 24-hour incubation. Type of assay: cell-based, Enterococcus faecium and Enterococcus faecalis.
Assay [19] relates to vancomycin-resistant enterococci. Put plainly: broth micro-dilution, mean geometric MIC. The assay is classed as cell-based, Enterococcus faecium and Enterococcus faecalis. The conditions noted are these: enterococci, 24-hour incubation.

The term MIC denotes the lowest concentration that inhibits growth of the organism. As to `CNC(CC(C)C)C(=O)NC1C(=O)NC(CC(N)=O)C(=O)NC2C(=O)NC3C(=O)NC(C(=O)NC(C(=O)O)c4cc(O)cc(O)c4-c4cc3ccc4O)C(OC3CC(C)(N)C(O)C(C)O3)c3ccc(c(Cl)c3)Oc3cc2cc(c3OC2OC(CO)C(O)C(O)C2OC2CC(C)(NCc3cc4ccccc4c4ccccc34)C(O)C(C)O2)Oc2ccc(cc2Cl)C1O` (centres unmarked) [Compound 11], the MIC in [1] was 0.5 µg/mL (≈ 0.28 µM); in assay [2], 2 µg/mL (≈ 1.12 µM); in [3], ≤ 0.06 µg/mL; in the assay on Entercoccus faecium 276, 1 µg/mL (≈ 0.561 µM); in assay [4] it was 4 µg/mL (≈ 2.24 µM); in assay [5], 4 µg/mL (≈ 2.24 µM). In addition, the MIC in assay [6] was 1 µg/mL (≈ 0.561 µM); in [7], 1 µg/mL (≈ 0.561 µM); in assay [8] it was ≤ 0.06 µg/mL; in [9] it was 2 µg/mL (≈ 1.12 µM); in assay [10], 0.5 µg/mL (≈ 0.28 µM); in assay [11], 0.25 µg/mL (≈ 0.14 µM). Moreover, the minimum inhibitory concentration (MIC) in assay [12] was ≤ 0.06 µg/mL; in the assay on Entercoccus faecium 180, 1 µg/mL (≈ 0.561 µM); in the assay on Entercoccus faecium 2041, 0.5 µg/mL (≈ 0.28 µM); in assay [13], ≤ 0.06 µg/mL; in assay [14], 2 µg/mL (≈ 1.12 µM); in assay [15] it was 4 µg/mL (≈ 2.24 µM). The MIC in assay [16] was 2 µg/mL (≈ 1.12 µM); in [17], ≤ 0.06 µg/mL. For the same compound, the “mean geometric MIC, Vancomycin Sensitive Strains” value in [18] stood at 0.22 µg/mL.
For `CNC(CC(C)C)C(=O)NC1C(=O)NC(CC(N)=O)C(=O)NC2C(=O)NC3C(=O)NC(C(=O)NC(C(=O)O)c4cc(O)cc(O)c4-c4cc3ccc4O)C(OC3CC(C)(N)C(O)C(C)O3)c3ccc(c(Cl)c3)Oc3cc2cc(c3OC2OC(CO)C(O)C(O)C2OC2CC(C)(NCc3ccc(OCCCC#N)cc3)C(O)C(C)O2)Oc2ccc(cc2Cl)C1O` (centres unmarked) [Compound 55], the MIC in assay [1] was 0.5 µg/mL (≈ 0.283 µM); in assay [2], 0.5 µg/mL (≈ 0.283 µM); in assay [3], ≤ 0.06 µg/mL; against Entercoccus faecium 276, 0.5 µg/mL (≈ 0.283 µM); in [4] it was 0.5 µg/mL (≈ 0.283 µM); in assay [5], 4 µg/mL (≈ 2.27 µM). Further, the MIC is 1 µg/mL (≈ 0.566 µM) in assay [6]; 0.5 µg/mL (≈ 0.283 µM) in assay [7]; ≤ 0.06 µg/mL in [8]; 0.5 µg/mL (≈ 0.283 µM) in assay [9]; ≤ 0.06 µg/mL in assay [10]; 0.5 µg/mL (≈ 0.283 µM) in [11]. Also, the MIC was ≤ 0.06 µg/mL in assay [12]; 2 µg/mL (≈ 1.13 µM) against Entercoccus faecium 180; 0.125 µg/mL (≈ 0.0708 µM) against Entercoccus faecium 2041; 1 µg/mL (≈ 0.566 µM) in [14]; 4 µg/mL (≈ 2.27 µM) in assay [15]; ≤ 0.06 µg/mL in assay [17]. Also, the “mean geometric MIC, Vancomycin Resistant Strains” value in assay [19] is 13 µg/mL. Further, in assay [18], the “mean geometric MIC, Vancomycin Sensitive Strains” value was found to be 1.7 µg/mL.
For the compound `CNC(CC(C)C)C(=O)NC1C(=O)NC(CC(N)=O)C(=O)NC2C(=O)NC3C(=O)NC(C(=O)NC(C(=O)O)c4cc(O)cc(O)c4-c4cc3ccc4O)C(OC3CC(C)(N)C(O)C(C)O3)c3ccc(c(Cl)c3)Oc3cc2cc(c3OC2OC(CO)C(O)C(O)C2OC2CC(C)(NCc3ccc4c(c3)OCCO4)C(O)C(C)O2)Oc2ccc(cc2Cl)C1O` (centres unmarked) [Compound 56], the MIC is 0.125 µg/mL (≈ 0.0718 µM) in assay [1]; 0.5 µg/mL (≈ 0.287 µM) in assay [2]; ≤ 0.06 µg/mL in assay [3]; 0.25 µg/mL (≈ 0.144 µM) with Entercoccus faecium 276; 0.5 µg/mL (≈ 0.287 µM) in assay [4]; 2 µg/mL (≈ 1.15 µM) in assay [5]. Further, the MIC in assay [6] was 1 µg/mL (≈ 0.575 µM); in assay [7], 0.5 µg/mL (≈ 0.287 µM); in assay [8] it was ≤ 0.06 µg/mL; in assay [9], 0.125 µg/mL (≈ 0.0718 µM); in assay [10], ≤ 0.06 µg/mL; in [11] it was 0.125 µg/mL (≈ 0.0718 µM). Also, the MIC is ≤ 0.06 µg/mL in assay [12]; 2 µg/mL (≈ 1.15 µM) against Entercoccus faecium 180; 0.25 µg/mL (≈ 0.144 µM) in the assay with Entercoccus faecium 2041; 16 µg/mL (≈ 9.19 µM) in assay [13]; 1 µg/mL (≈ 0.575 µM) in assay [14]; 4 µg/mL (≈ 2.3 µM) in assay [15]. In addition, the MIC in [16] is 16 µg/mL (≈ 9.19 µM); in assay [17] it was ≤ 0.06 µg/mL. In [19], the “mean geometric MIC, Vancomycin Resistant Strains” value is 19 µg/mL.
Turning to `CNC(CC(C)C)C(=O)NC1C(=O)NC(CC(N)=O)C(=O)NC2C(=O)NC3C(=O)NC(C(=O)NC(C(=O)O)c4cc(O)cc(O)c4-c4cc3ccc4O)C(OC3CC(C)(N)C(O)C(C)O3)c3ccc(c(Cl)c3)Oc3cc2cc(c3OC2OC(CO)C(O)C(O)C2OC2CC(C)(NCc3ccc4c(c3O)Cc3ccccc3-4)C(O)C(C)O2)Oc2ccc(cc2Cl)C1O` (centres unmarked) [Compound 103], the MIC is 1 µg/mL (≈ 0.56 µM) in assay [1]; 2 µg/mL (≈ 1.12 µM) in assay [2]; ≤ 0.06 µg/mL in [3]; 0.25 µg/mL (≈ 0.14 µM) against Entercoccus faecium 276; 0.5 µg/mL (≈ 0.28 µM) in [4]; 1 µg/mL (≈ 0.56 µM) in assay [5]. For the same compound, the MIC is ≤ 0.06 µg/mL in [6]; 1 µg/mL (≈ 0.56 µM) in assay [7]; ≤ 0.06 µg/mL in assay [8]; 1 µg/mL (≈ 0.56 µM) in assay [9]; ≤ 0.06 µg/mL in assay [10]; 0.5 µg/mL (≈ 0.28 µM) in assay [11]. The MIC in assay [12] was ≤ 0.06 µg/mL; against Entercoccus faecium 2041 it was ≤ 0.06 µg/mL; in assay [13], 8 µg/mL (≈ 4.48 µM); in assay [14], 1 µg/mL (≈ 0.56 µM); in [15] it was 4 µg/mL (≈ 2.24 µM); in assay [16], 8 µg/mL (≈ 4.48 µM). The MIC in assay [17] was ≤ 0.06 µg/mL. For the same compound, in [19], the “mean geometric MIC, Vancomycin Resistant Strains” value worked out at 4.0 µg/mL. Besides, the “mean geometric MIC, Vancomycin Sensitive Strains” value in assay [18] is 0.33 µg/mL.
As to `CNC(CC(C)C)C(=O)NC1C(=O)NC(CC(N)=O)C(=O)NC2C(=O)NC3C(=O)NC(C(=O)NC(C(=O)O)c4cc(O)cc(O)c4-c4cc3ccc4O)C(OC3CC(C)(N)C(O)C(C)O3)c3ccc(c(Cl)c3)Oc3cc2cc(c3OC2OC(CO)C(O)C(O)C2OC2CC(C)(NCc3ccc(OCCC4CCCCC4)cc3)C(O)C(C)O2)Oc2ccc(cc2Cl)C1O` (centres unmarked) [Compound 127], the MIC in assay [1] is 2 µg/mL (≈ 1.11 µM); in assay [2], 2 µg/mL (≈ 1.11 µM); in [3], ≤ 0.06 µg/mL; with Entercoccus faecium 276, ≤ 0.06 µg/mL; in assay [4], 1 µg/mL (≈ 0.553 µM); in [5], 2 µg/mL (≈ 1.11 µM). Further, the MIC in [6] was 2 µg/mL (≈ 1.11 µM); in [7], 1 µg/mL (≈ 0.553 µM); in assay [9], 2 µg/mL (≈ 1.11 µM); in assay [10], 2 µg/mL (≈ 1.11 µM); in assay [11] it was 1 µg/mL (≈ 0.553 µM); in assay [12] it was ≤ 0.06 µg/mL. Also, the MIC in the assay with Entercoccus faecium 180 is ≤ 0.06 µg/mL; in the assay with Entercoccus faecium 2041, ≤ 0.06 µg/mL; in [13], 4 µg/mL (≈ 2.21 µM); in assay [14], ≤ 0.06 µg/mL; in assay [15], 2 µg/mL (≈ 1.11 µM); in [16], 4 µg/mL (≈ 2.21 µM). For the same compound, the MIC in assay [17] was ≤ 0.06 µg/mL. Also, the “mean geometric MIC, Vancomycin Resistant Strains” value in [19] amounted to 1.2 µg/mL. For the same compound, the “mean geometric MIC, Vancomycin Sensitive Strains” value in assay [18] came to 0.33 µg/mL.
